The results in this text go back to ChEMBL document CHEMBL3886262, “Azetidine compounds, compositions and methods of use” (2015).

This test concerns the target T1, Bifunctional epoxide hydrolase 2 (Homo sapiens, UniProt P34913).
T1 sequence (P34913 whole entry): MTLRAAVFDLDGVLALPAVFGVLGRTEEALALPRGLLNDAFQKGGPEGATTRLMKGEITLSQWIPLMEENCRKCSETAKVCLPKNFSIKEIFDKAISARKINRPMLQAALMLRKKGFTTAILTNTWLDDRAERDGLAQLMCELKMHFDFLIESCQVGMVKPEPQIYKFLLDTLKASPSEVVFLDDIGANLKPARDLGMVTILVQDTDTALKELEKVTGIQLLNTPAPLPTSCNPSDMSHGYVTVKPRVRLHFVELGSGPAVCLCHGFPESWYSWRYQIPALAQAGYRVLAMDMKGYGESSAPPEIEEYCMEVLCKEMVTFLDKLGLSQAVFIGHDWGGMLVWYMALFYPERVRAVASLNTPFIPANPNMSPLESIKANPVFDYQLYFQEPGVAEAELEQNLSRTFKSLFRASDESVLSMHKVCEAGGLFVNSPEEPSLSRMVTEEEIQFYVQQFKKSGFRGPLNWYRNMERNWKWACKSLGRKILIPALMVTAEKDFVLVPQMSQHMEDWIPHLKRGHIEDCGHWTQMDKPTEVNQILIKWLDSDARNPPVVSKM
The experiment in a line: Enzyme Assay: Test compounds (1.6 mM stock in DMSO) were diluted 3 fold in series in DMSO and 0.8 microliters per well were added into 384-well NBS microplates (Corning). Resorufin epoxide substrate (20 uM stock in DMSO) was diluted to 5 μM with Assay Buffer (25 mM bis-Tris-HCl, pH 7.0, 1 mM DTT and 0.2 mg/ml BSA) and 8 microliters per well were added to the microplates. Thirty two microliters per well of 3.6 nM soluble epoxide hydrolase in Assay Buffer was then added. The samples were incubated at room temperature and assay signals were monitored by reading excitation at 530 nm and emission fluorescence at 590 nm on a PlateVision (Zeiss) reader every 2 minutes for 8 times.

For `O=C(NCc1ccc(Cl)cc1Cl)N1CC2(C1)CN(S(=O)(=O)c1ccccc1)C2`, the IC50 was 79 nM.
